Laboratory results reported in patent publication US10117890B2, “Methods and compositions for treating pain” (Academia Sinica, priority 2012, dated 2018).

Legend:
[1] = system: ICS-induced pain; experiment: Intermittent cold stress (ICS) mouse model of fibromyalgia, von Frey test; assay type: in vivo, mice
Procedure: Mechanical hyperalgesia was assessed by applying a 0.2 mN von Frey filament to the plantar surface of both hind paws. For each paw, the filament was applied for 5 times at 30-s intervals.
To induce fibromyalgia-like symptoms, mice were treated with intermittent cold stress, which produces long-lasting (more than 2 weeks) thermal hyperalgesia and mechanical allodynia, predominantly in females. Method: Mice were placed on stainless mesh plate in a cold room at 4° C. overnight (from 4:30 pm to 10:00 am), followed by intermittent cold stress with environment temperatures alternating between 24 and 4° C. every 30 min, from 10:00 am to 4:30 pm. These procedures were repeated twice. On day 3, the mice were adapted to 24 C for 1 h before behavioral testing.
The second fibromyalgia model is developed by Ueda's group, in which mice were treated with intermittent cold stress for 2 days (Nishiyori & Ueda, 2008). Mice treated with intermittent cold stress will develop long-lasting (>2 weeks) mechanical and thermal hyperalgesia. Analgesic effect of T1-11 was tested in these mice 5 day after intermittent cold stress (ICS). […] Moreover, we found T1-11 and substance P have synergistic effect in treating the ICS-induced pain.

[2] = system: muscle nociceptors (ASIC3-positive muscle afferent DRG neurons expressing ISP-O); experiment: Whole-cell patch-clamp recording of outward currents in muscle afferent DRG neurons; assay type: cell-based, mice
Procedure: The digested DRG neurons were washed with fetal calf serum (FCS)-free DMEM or DMEM containing 10% FCS during each treatment. Fully digested DRGs were triturated and plated on poly-L-lysine-coated cover slides. Cell cultures were maintained in a 5% CO2 incubator at 37° C.
Whole-cell patch-clamp recordings of muscle-afferent neurons involved use of Axopatch MultiClamp 700B (Axon Instruments). Neurons with membrane potential >−40 mV were discarded. The bridge was balanced in current-clamp recording, and the series resistance was compensated 70% in voltage-clamp recording with […] 700B compensation circuitry. All experiments were performed at room temperature (21-25° C.) and completed within 30 hr post-seeding. Unless specifically mentioned, the patch pipettes were prepared in 1-5 MΩ and filled with internal solution containing (in mM) 100 KCl, 2 Nae-ATP, 0.3 Na3-GTP, 10 EGTA, 5 MgCl2, and 40 HEPES, adjusted to pH 7.4 with KOH. Recording cells were superfused in artificial cerebrospinal fluid (ACSF) by control with gravitational force. The ACSF contained (in mM) 130 NaCl, 5 KCl, 1 MgCl2, 2 CaCl2, 10 glucose, and 20 HEPES, adjusted to pH 7.4 with NaOH. Osmolarity was adjusted to 300 mOsm. The acidic ACSF was titrated to pH 6.8 by […]. […] If not specifically mentioned, drugs listed above were from Sigma Chemical (St. Louis, Mo.).
The procedure was repeated at least 2 times to ensure consistent data. […] ACSF-containing compounds were superfused for 1 min to ensure complete replacement of previous perfusate between treatments. […] A recording pipette containing 1 mM GDP-β-S was used in GTP dialysis. The GABA-B current was induced by 100 μM Baclofen at the beginning of dialysis (0, 1 and 2 min after whole-cell patch clamp). Then, Baclofen was used to re-stimulate the dialyzed neurons after 10-min dialysis (10, 11 and 12 min after whole-cell patch clamp).

[3] = system: ASIC3; experiment: Whole-cell patch clamp of acid-induced current in CHO cells transfected with ASIC3; assay type: cell-based

`OC[C@H]1O[C@@H](n2cnc3c(NCc4ccc(O)cc4)ncnc32)[C@H](O)[C@@H]1O` [T1-11, N^6-(4-hydroxybenzyl)adenosine] was tested, and the “analgesic effect on ICS-treated mice, T1-11 alone” value ([1]; T1-11 3 μg/kg alone) was “did not show analgesic effect”, the “analgesic effect on ICS-treated mice, combination” value ([1]; T1-11 3 μg/kg combined with 0.6 mg/kg SM-substance P) was “showed analgesic effect” and the “analgesic effect on mice treated with ICS” value ([1]; T1-11 30 ug/kg) was “had analgesic effect”. For the same compound, the “therapeutic dose to treat the ICS-induced pain” value ([1]; i.p., 5 day after ICS) was 0.03 mg/kg, the “IT1-11 in A2A−/− muscle afferent DRG neurons” value ([2]; A2A−/− neurons) was “not changed” and the EC50 ([2]; Mus musculus, DRG neuron, peak whole-cell current, 1, 3, 10, 30 and 100 nM, n=11, read-out: EC50 of T1-11-induced outward current (IT1-11)) was 1.3 nM. The “induction of outward current in ASIC3/SP-expressing muscle DRG neurons” value ([2]; SP-sensitive muscle nociceptors) was “elicited a slow inactivating outward current”, the “effect on M-type potassium current” value ([2]; voltage shift from −50 mV to −20 mV, muscle afferent neurons expressing ISP-O) was “enhanced M current” and the “acid-induced current in CHO cells transfected with ASIC3” value [3] was “blocked”.
